Usually MIC stands for the least concentration at which growth counts as inhibited. One may read the IC50 as the concentration that gives 50% inhibition.

Molecules are shown by their SMILES. ≈ marks a conversion by molar mass, not a printed value. A value given as a limit tells only on which side of the number the result lay.

One experiment deals with Acinetobacter baumannii. The experiment is described as follows: Potentiation of colistin-induced antibacterial activity against Acinetobacter baumannii ATCC 17978 assessed as fold reduction in colistin MIC by microdilution broth method relative to colistin MIC. It counts as functional. In general terms: Dilution methods test growth across graded concentrations, often in twofold steps.
With `CCCCCc1cc(O)cc(OCCCCCCCCCCCC(=O)NCCO)c1`, the log2FC was determined as 7.

Turning to `CCCCCc1cc(OC)cc(OCCCCCCCC(=O)NCCO)c1`, the log2FC was 7.

Turning to `O=C(NCc1ccc2c(c1)OCO2)c1cnn(-c2ccccc2)c1-n1cccc1`, the log2FC was determined as 4.

The next experiment has as its system Klebsiella pneumoniae. The experiment is described as follows: Antibacterial activity against Klebsiella pneumoniae ATCC 13833 assessed as bacterial growth inhibition by agar diffusion assay. Format: functional.
For `CCCCCc1cc(O)cc(OCCCCCCCCCCCC(=O)NCCO)c1`, the MIC is above 512 µg/mL.

In the case of `CCCCCc1cc(OC)cc(OCCCCCCCC(=O)NCCO)c1`, the MIC was above 512 µg/mL.

Take `O=C(NCc1ccc2c(c1)OCO2)c1cnn(-c2ccccc2)c1-n1cccc1`: the MIC was above 512 µg/mL.

In another experiment the test system is Pseudomonas aeruginosa. The experiment is described as follows: Antibacterial activity against Pseudomonas aeruginosa ATCC 27853 assessed as bacterial growth inhibition by agar diffusion assay. Format: functional. In general terms: In agar diffusion tests the substance spreads into inoculated agar from a disc or well.
With `CCCCCc1cc(O)cc(OCCCCCCCCCCCC(=O)NCCO)c1`, the MIC was above 512 µg/mL.

Take `CCCCCc1cc(OC)cc(OCCCCCCCC(=O)NCCO)c1`: the MIC is above 512 µg/mL.

Take `O=C(NCc1ccc2c(c1)OCO2)c1cnn(-c2ccccc2)c1-n1cccc1`: the MIC is above 512 µg/mL.

The test system of another experiment is HeLa. As to the kind of experiment: Cytotoxicity against human HeLa cells assessed as reduction in cell viability assay by CellTox-Green assay. Format: cell-based.
As for `CCCCCc1cc(O)cc(OCCCCCCCCCCCC(=O)NCCO)c1`, the IC50 came out at 18 µg/mL (≈ 42.7 µM).

For the molecule `CCCCCc1cc(OC)cc(OCCCCCCCC(=O)NCCO)c1`, the IC50 is above 20 µg/mL.

`O=C(NCc1ccc2c(c1)OCO2)c1cnn(-c2ccccc2)c1-n1cccc1`: the IC50 was above 60 µg/mL.

For a further experiment, the system named is Acinetobacter baumannii. As to the kind of experiment: Synergistic antibacterial activity against Acinetobacter baumannii ATCC 17978 assessed as fractional inhibitory concentration index in presence of colistin by Checkerboard assay. Format: functional.
On to `CCCCCc1cc(O)cc(OCCCCCCCCCCCC(=O)NCCO)c1`, for which the “fractional inhibitory concentration index (FICI)” value is listed as 0.31.

Take `O=C(NCc1ccc2c(c1)OCO2)c1cnn(-c2ccccc2)c1-n1cccc1`: the “fractional inhibitory concentration index (FICI)” value is 0.38.

A further experiment relates to Escherichia coli. The experiment is described as follows: Synergistic antibacterial activity against Escherichia coli CCUG in presence of 0.5 times MIC of colistin by microdilution broth method. Format: functional.
With `CCCCCc1cc(O)cc(OCCCCCCCCCCCC(=O)NCCO)c1`, the MIC amounted to 8 µg/mL.

Take `CCCCCc1cc(OC)cc(OCCCCCCCC(=O)NCCO)c1`: the MIC is 4 µg/mL.

Consider `O=C(NCc1ccc2c(c1)OCO2)c1cnn(-c2ccccc2)c1-n1cccc1`, for which the MIC came out at 64 µg/mL.

In the next experiment the test system is Klebsiella pneumoniae. As to the kind of experiment: Synergistic antibacterial activity against colistin-resistant Klebsiella pneumoniae SI-004Bo clinical isolate in presence of 2 ug/ml colistin by microdilution broth method (reference value: 64 ug/ml). It counts as functional.
As for `CCCCCc1cc(O)cc(OCCCCCCCCCCCC(=O)NCCO)c1`, the MIC was above 64 µg/mL.

Consider `CCCCCc1cc(OC)cc(OCCCCCCCC(=O)NCCO)c1`, for which the MIC is above 64 µg/mL.

`O=C(NCc1ccc2c(c1)OCO2)c1cnn(-c2ccccc2)c1-n1cccc1`: the MIC is above 64 µg/mL.

For a further experiment, the system named is Pseudomonas aeruginosa. As to the kind of experiment: Potentiation of colistin-induced antibacterial activity against Pseudomonas aeruginosa ATCC 27853 assessed as fold reduction in colistin MIC by microdilution broth method relative to colistin MIC. It counts as functional.
As for `CCCCCc1cc(O)cc(OCCCCCCCCCCCC(=O)NCCO)c1`, the log2FC amounted to 7.

The subject of a further experiment is Klebsiella pneumoniae. The experiment is described as follows: Synergistic antibacterial activity against colistin-resistant Klebsiella pneumoniae SI-081R clinical isolate in presence of 2 ug/ml colistin by microdilution broth method (reference value: 256 ug/ml). It counts as functional.
In the case of `CCCCCc1cc(O)cc(OCCCCCCCCCCCC(=O)NCCO)c1`, the MIC is above 64 µg/mL.

For `CCCCCc1cc(OC)cc(OCCCCCCCC(=O)NCCO)c1`, the MIC was 18 µg/mL.

Regarding `O=C(NCc1ccc2c(c1)OCO2)c1cnn(-c2ccccc2)c1-n1cccc1`, the MIC is above 64 µg/mL.

The next experiment concerns Acinetobacter baumannii. The experiment is described as follows: Synergistic antibacterial activity against multidrug-resistant Acinetobacter baumannii N50 in presence of 2 ug/ml colistin by microdilution broth method. It counts as functional.
As to `CCCCCc1cc(O)cc(OCCCCCCCCCCCC(=O)NCCO)c1`, the MIC worked out at 4 µg/mL.

As for `CCCCCc1cc(OC)cc(OCCCCCCCC(=O)NCCO)c1`, the MIC came out at 8 µg/mL.

Take `O=C(NCc1ccc2c(c1)OCO2)c1cnn(-c2ccccc2)c1-n1cccc1`: the minimal inhibitory concentration (MIC) came to 32 µg/mL.

In the next experiment the test system is Acinetobacter baumannii. The experiment is described as follows: Antibacterial activity against Acinetobacter baumannii ATCC 17978 assessed as bacterial growth inhibition by agar diffusion assay. Format: functional.
As to `CCCCCc1cc(O)cc(OCCCCCCCCCCCC(=O)NCCO)c1`, the MIC is above 512 µg/mL.

Consider `CCCCCc1cc(OC)cc(OCCCCCCCC(=O)NCCO)c1`, for which the MIC is above 512 µg/mL.

For `O=C(NCc1ccc2c(c1)OCO2)c1cnn(-c2ccccc2)c1-n1cccc1`, the minimal inhibitory concentration (MIC) was above 512 µg/mL.

The next experiment has as its system Pseudomonas aeruginosa. The experiment is described as follows: Synergistic antibacterial activity against Pseudomonas aeruginosa ATCC 27853 in presence of 0.5 times MIC of colistin by microdilution broth method. Format: functional.
On to `CCCCCc1cc(O)cc(OCCCCCCCCCCCC(=O)NCCO)c1`, for which the MIC stood at 4 µg/mL.

For the next experiment, the system named is Acinetobacter baumannii. The experiment is described as follows: Synergistic antibacterial activity against Acinetobacter baumannii ATCC 17978 in presence of 0.5 times MIC of colistin by microdilution broth method. Format: functional.
On to `CCCCCc1cc(O)cc(OCCCCCCCCCCCC(=O)NCCO)c1`, for which the MIC is 4 µg/mL.

For the molecule `CCCCCc1cc(OC)cc(OCCCCCCCC(=O)NCCO)c1`, the MIC was 4 µg/mL.

For the molecule `O=C(NCc1ccc2c(c1)OCO2)c1cnn(-c2ccccc2)c1-n1cccc1`, the minimal inhibitory concentration (MIC) stood at 32 µg/mL.

Another experiment deals with Klebsiella pneumoniae. As to the kind of experiment: Synergistic antibacterial activity against Klebsiella pneumoniae ATCC 13833 in presence of 0.5 times MIC of colistin by microdilution broth method. Format: functional.
Consider `CCCCCc1cc(O)cc(OCCCCCCCCCCCC(=O)NCCO)c1`, for which the MIC was found to be 8 µg/mL.

With `CCCCCc1cc(OC)cc(OCCCCCCCC(=O)NCCO)c1`, the MIC stood at 8 µg/mL.

Turning to `O=C(NCc1ccc2c(c1)OCO2)c1cnn(-c2ccccc2)c1-n1cccc1`, the MIC came out at 64 µg/mL.

The next experiment relates to Klebsiella pneumoniae. The experiment is described as follows: Potentiation of colistin-induced antibacterial activity against Klebsiella pneumoniae ATCC 13833 assessed as fold reduction in colistin MIC by microdilution broth method relative to colistin MIC. Format: functional.
With `CCCCCc1cc(O)cc(OCCCCCCCCCCCC(=O)NCCO)c1`, the log2FC came out at 6.

Turning to `CCCCCc1cc(OC)cc(OCCCCCCCC(=O)NCCO)c1`, the log2FC stood at 6.

For `O=C(NCc1ccc2c(c1)OCO2)c1cnn(-c2ccccc2)c1-n1cccc1`, the log2FC is listed as 3.

Another experiment relates to Escherichia coli. The experiment is described as follows: Antibacterial activity against Escherichia coli CCUG assessed as bacterial growth inhibition by agar diffusion assay. It counts as functional.
`CCCCCc1cc(O)cc(OCCCCCCCCCCCC(=O)NCCO)c1`: the MIC was above 512 µg/mL.

As for `CCCCCc1cc(OC)cc(OCCCCCCCC(=O)NCCO)c1`, the MIC is above 512 µg/mL.

As for `O=C(NCc1ccc2c(c1)OCO2)c1cnn(-c2ccccc2)c1-n1cccc1`, the MIC was above 512 µg/mL.

A further experiment deals with Pseudomonas aeruginosa. As to the kind of experiment: Synergistic antibacterial activity against Pseudomonas aeruginosa ATCC 27853 assessed as fractional inhibitory concentration index in presence of colistin by Checkerboard assay. Format: functional.
As for `CCCCCc1cc(O)cc(OCCCCCCCCCCCC(=O)NCCO)c1`, the “fractional inhibitory concentration index (FICI)” value turned out to be 0.41.

The test system of another experiment is Escherichia coli. The experiment is described as follows: Potentiation of colistin-induced antibacterial activity against Escherichia coli CCUG assessed as fold reduction in colistin MIC in by microdilution broth method relative to colistin MIC. It counts as functional.
Regarding `CCCCCc1cc(O)cc(OCCCCCCCCCCCC(=O)NCCO)c1`, the log2FC was determined as 6.

Turning to `CCCCCc1cc(OC)cc(OCCCCCCCC(=O)NCCO)c1`, the log2FC amounted to 7.

Regarding `O=C(NCc1ccc2c(c1)OCO2)c1cnn(-c2ccccc2)c1-n1cccc1`, the log2FC was 3.

These data come from ChEMBL document CHEMBL4613308, “Screen of Unfocused Libraries Identified Compounds with Direct or Synergistic Antibacterial Activity” (ACS Med Chem Lett, 2020).
